# Test results: ChEMBL document CHEMBL1125372, “Crystal-structure-based design and synthesis of benz[cd]indole-containing inhibitors of thymidylate synthase” (J Med Chem, 1992)
# Experiments:
# CCRF-CEM = test: Inhibition of cellular growth by the MTT colorimetric assay in CCRF-CEM, human lymphoblasticof T-cell origin
# GC3/MTK- = test: Inhibition of cellular growth by the MTT colorimetric assay in GC3/M TK-, a human thymidine kinase deficient adenocarcinoma line
# L1210 = test: Inhibition of cellular growth by the MTT colorimetric assay in L1210, murine leukemia cell line; conditions: Mus musculus
# [1] = target: Thymidylate synthase (Escherichia coli) (UniProt C3SWJ7)
# Description: Compound was evaluated for its inhibitory activity against thymidylate synthase from Escherichia coli
# [2] = target: Thymidylate synthase (Escherichia coli) (UniProt C3SWJ7); remark: listed apart in the source
# Description: Inhibitory activity against thymidylate synthase from Escherichia coli
# [3] = target: Thymidylate synthase (Homo sapiens) (UniProt P04818)
# Description: (§1) Inhibitory activity against thymidylate synthase from human
# [4] = target: Thymidylate synthase (Homo sapiens) (UniProt P04818); remark: listed apart in the source
# Description: as §1
# [5] = Compound was evaluated for thymidylate shift expressed as the ratio of the IC50 in the presence of […] uM thymidylate divided by the IC50 with no thymidylate added
# Chain of Thymidylate synthase (Escherichia coli) (C3SWJ7 1-264): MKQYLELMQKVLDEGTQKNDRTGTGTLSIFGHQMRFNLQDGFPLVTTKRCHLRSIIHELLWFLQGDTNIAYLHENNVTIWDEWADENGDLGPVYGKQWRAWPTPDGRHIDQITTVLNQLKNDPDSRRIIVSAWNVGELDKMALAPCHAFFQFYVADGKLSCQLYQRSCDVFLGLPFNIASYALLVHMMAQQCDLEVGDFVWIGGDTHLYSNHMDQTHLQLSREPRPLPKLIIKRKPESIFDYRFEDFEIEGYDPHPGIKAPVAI
# Chain of Thymidylate synthase (Homo sapiens) (P04818 2-313 limits assumed): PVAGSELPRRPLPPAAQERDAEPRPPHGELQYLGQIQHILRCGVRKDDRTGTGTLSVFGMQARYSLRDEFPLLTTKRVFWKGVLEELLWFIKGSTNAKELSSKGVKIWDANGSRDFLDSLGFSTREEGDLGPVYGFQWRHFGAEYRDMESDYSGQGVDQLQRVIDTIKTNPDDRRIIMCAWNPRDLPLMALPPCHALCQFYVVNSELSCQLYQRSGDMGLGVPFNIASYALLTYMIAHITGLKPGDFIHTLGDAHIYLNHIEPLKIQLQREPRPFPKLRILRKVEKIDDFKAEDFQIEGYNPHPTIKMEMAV
IC50 (CCRF-CEM),IC50 (L1210),Kis [1],Kii [2],Kis [3],Kii [4],Thymidylate shift [5],Structure (SMILES),IC50 (GC3/MTK-)
1250 nM,700 nM,–,–,–,–,–,CCN(Cc1ccc(S(=O)(=O)c2ccccc2)cc1)c1ccc2c3c(cccc13)C(N)=N2,3000 nM
5000 nM,3300 nM,–,–,–,–,–,Cc1ccc2c3c(ccc(N(C)Cc4ccc(S(=O)(=O)c5ccc(N)cc5)cc4)c13)NC2=O,> 5000 nM
3300 nM,1600 nM,–,–,–,–,–,CNC1=Nc2ccc(N(C)Cc3ccc(S(=O)(=O)c4ccccc4)cc3)c3cccc1c23,3400 nM
9500 nM,10000 nM,–,–,–,–,–,CN(Cc1ccc(S(=O)(=O)c2ccc(O)cc2)cc1)c1ccc2c3c(cccc13)C(=O)N2,9500 nM
4000 nM,2000 nM,–,–,–,–,–,COc1ccc(S(=O)(=O)c2ccc(CN(C)c3ccc4c5c(ccc(C)c35)C(=O)N4)cc2)cc1,> 5000 nM
2500 nM,2000 nM,–,–,–,–,–,Cc1ccc2c3c(ccc(NCc4ccc(S(=O)(=O)c5ccccc5)cc4)c13)NC2=O,> 5000 nM
> 4000 nM,2300 nM,–,–,–,–,–,O=C1Nc2ccc(NCc3ccc(S(=O)(=O)c4ccccc4)cc3)c3cccc1c23,> 4000 nM
360 nM,250 nM,–,–,–,–,3.85,Cc1ccc2c3c(ccc(N(C)Cc4ccc(S(=O)(=O)c5ccccc5)cc4)c13)N=C2N,520 nM
4800 nM,1900 nM,–,–,–,–,–,Cc1ccc2c3c(ccc(N(C)Cc4ccc(S(=O)(=O)c5ccccc5)cc4)c13)NC2=O,> 5000 nM
> 3330 nM,3050 nM,–,–,–,–,–,CCN(Cc1ccc(S(=O)(=O)c2ccccc2)cc1)c1ccc2c3c(cccc13)C(=O)N2,3330 nM
2800 nM,2000 nM,–,–,–,–,–,CN(Cc1ccc(S(=O)(=O)c2ccc([N+](=O)[O-])cc2)cc1)c1ccc2c3c(cccc13)C(=O)N2,> 5000 nM
3000 nM,4600 nM,–,–,–,–,–,COc1ccc(S(=O)(=O)c2ccc(CN(C)c3ccc4c5c(cccc35)C(=O)N4)cc2)cc1,10000 nM
1300 nM,2400 nM,–,–,–,–,–,CN(Cc1ccc(S(=O)(=O)c2ccccc2)cc1)c1ccc2c3c(cccc13)C(NN)=N2,> 10000 nM
2000 nM,810 nM,–,–,–,–,–,CN(Cc1ccc(S(=O)(=O)c2ccccc2)cc1)c1ccc2c3c(cccc13)C(NO)=N2,> 5000 nM
2800 nM,2100 nM,–,–,–,–,–,CSCN(Cc1ccc(S(=O)(=O)c2ccccc2)cc1)c1ccc2c3c(cccc13)C(=O)N2,> 10000 nM
2400 nM,890 nM,–,–,–,–,–,Cc1ccc2c3c(ccc(N(C)Cc4ccc(S(=O)(=O)c5ccc([N+](=O)[O-])cc5)cc4)c13)NC2=O,> 5000 nM

# Continued, molecule first:
Structure (SMILES),IC50 (CCRF-CEM),IC50 (L1210),Kis [1],Kii [2],Kis [3],Kii [4],Thymidylate shift [5],IC50 (GC3/MTK-)
Cc1ccc2c3c(ccc(N(C)Cc4ccc(S(=O)(=O)c5ccc([N+](=O)[O-])cc5)cc4)c13)N=C2N,690 nM,570 nM,–,–,–,–,–,910 nM
CN(Cc1ccc(S(=O)(=O)c2ccc(O)cc2)cc1)c1ccc2c3c(cccc13)C(N)=N2,2700 nM,2100 nM,–,–,–,–,–,4050 nM
CSC1Nc2ccc(N(C)Cc3ccc(S(=O)(=O)c4ccc(O)cc4)cc3)c3cccc1c23 (stereo unspecified),> 4000 nM,> 4000 nM,–,–,–,–,–,> 4000 nM
CC(=O)c1cccc2c(N(C)Cc3ccc(S(=O)(=O)c4ccc(N)cc4)cc3)ccc(N)c12,5900 nM,9100 nM,–,–,–,–,–,> 10000 nM
CNC1=Nc2ccc(N(C)Cc3ccc(S(=O)(=O)N4CCOCC4)cc3)c3c(C)ccc1c23,610 nM,180 nM,0.055 µM,0.088 µM,–,–,–,210 nM
CC(C)N(Cc1ccc(S(=O)(=O)N2CCNCC2)cc1)c1ccc2c3c(cccc13)C(=O)N2,6800 nM,3900 nM,–,–,–,–,–,5900 nM
COc1ccc(S(=O)(=O)c2ccc(CN(C)c3ccc4c5c(ccc(C)c35)C(N)=N4)cc2)cc1,400 nM,310 nM,–,–,–,–,–,970 nM
COc1ccc(S(=O)(=O)c2ccc(CN(C)c3ccc4c5c(ccc(C)c35)C(NO)=N4)cc2)cc1,5000 nM,4100 nM,–,–,–,–,–,> 10000 nM
CN(Cc1ccc(S(=O)(=O)N2CCOCC2)cc1)c1ccc2c3c(cccc13)C(=N)N2,460 nM,490 nM,1.8 µM,5.4 µM,0.012 µM,0.015 µM,–,900 nM
CSc1ccc2c3c(ccc(N(C)Cc4ccc(S(=O)(=O)N5CCOCC5)cc4)c13)N=C2N,3100 nM,1900 nM,–,–,–,–,–,6900 nM
Cc1ccc2c3c(ccc(N(C)Cc4ccc(S(=O)(=O)c5ccc(N)cc5)cc4)c13)N=C2N,200 nM,280 nM,–,–,–,–,–,270 nM
CN(Cc1ccc(S(=O)(=O)N2CCOCC2)cc1)c1ccc2c3c(ccc(Cl)c13)C(=O)N2,> 5000 nM,> 5000 nM,–,–,–,–,–,> 5000 nM
O=C1Nc2ccc(N(CCCO)Cc3ccc(S(=O)(=O)N4CCNCC4)cc3)c3cccc1c23,15000 nM,21500 nM,–,–,–,–,–,30000 nM
CN(Cc1ccc(S(=O)(=O)N2CCOCC2)cc1)c1ccc2c3c(ccc(Cl)c13)C(N)=N2,900 nM,440 nM,–,–,–,–,–,1400 nM
CCCN(Cc1ccc(S(=O)(=O)N2CCNCC2)cc1)c1ccc2c3c(cccc13)C(=O)N2,3100 nM,2900 nM,–,–,–,–,–,5400 nM
Cc1ccc2c3c(ccc(N(C)Cc4ccc(S(=O)(=O)N5CCOCC5)cc4)c13)N=C2N,220 nM,220 nM,–,–,–,–,–,440 nM
CNC1=Nc2ccc(N(C)Cc3ccc(S(=O)(=O)c4ccc(OC)cc4)cc3)c3c(C)ccc1c23,890 nM,720 nM,–,–,–,–,–,1500 nM
CN(Cc1ccc(S(=O)(=O)N2CCOCC2)cc1)c1ccc2c3c(cccc13)C(=O)N2,> 5000 nM,> 5000 nM,–,–,–,–,–,> 5000 nM
Cc1ccc2c3c(ccc(N(C)Cc4ccc(S(=O)(=O)N5CCOCC5)cc4)c13)NC2=O,3900 nM,2600 nM,–,–,–,–,–,> 5000 nM
COc1ccc(S(=O)(=O)c2ccc(CN(C)c3ccc4c5c(cccc35)C(N)=N4)cc2)cc1,2100 nM,1200 nM,–,–,–,–,–,2100 nM
CNC1=Nc2ccc(N(C)Cc3ccc(S(=O)(=O)N4CCOCC4)cc3)c3cccc1c23,> 5000 nM,1800 nM,–,–,–,–,–,> 5000 nM
O=C1Nc2ccc(N(CCO)Cc3ccc(S(=O)(=O)N4CCNCC4)cc3)c3cccc1c23,31000 nM,50000 nM,–,–,–,–,–,> 50000 nM
